Assays:
[1] = tested on: EMT6 murine mastocytoma; assay: Sonosensitizing potential: LD50 in EMT6 cells in vitro for a fixed dose of ultrasound; type: cell-based
Source text: (§1) As used herein, “photopotentiation factor” refers to the property of the compound(s) to exert light- or sound-mediated toxicity in excess of its (their) inherent unactivated toxicity. In a preferred embodiment of the invention, the activation factor may be calculated as the ratio of the LD50 of cells treated without activation to the LD50 of the cells treated with an activated compound (drug LD50 divided by activated drug LD50). Where the term “LD50” has been used above, the term “IC50” may be substituted, to address the bioassays that concern metabolic activity rather than the endpoint of lethality, loss of reproductive capability, or clonogenic death. The relative photoactivation efficiency of a compound may also be determined using a clonogenic assay, an assay that is well known to those skilled in the art.
(§2) for a fixed dose of light or ultrasound

[2] = tested on: EMT6 murine; assay: Photosensitizing potential: LD50 in EMT6 cells in vitro for a fixed dose of light; type: cell-based
Source text: as §1, §2

[3] = Absorption (extinction coefficient) in the red spectral region compared with HB; type: physicochemical
Source text: A hypocrellin derivative of the present invention also includes 2-butylamino-2-demethoxy-hypocrellin B (2-BA-2-DMHB). […] Compared with its parent compound HB, its absorption bands extend toward longer wavelengths. The extinction coefficient at 583 nm was 2.5-fold as much as HB at 548 nm, and at 621 nm was over 3.8-fold as much as HB at 580 nm.

2-(N,N-dimethyl-amino) propylamine-Hypocrellin B [HBDD-R1]
Sonosensitizing Potential (Molar Concentration which exerts LD50) [1]: 1.0 mM

2-butylamino-2-demethoxy-Hypocrellin B [DMHBb]
Photosensitizing Potential (Molar Concentration which exerts LD50) [2]: 0.1 µM | Sonosensitizing Potential (Molar Concentration which exerts LD50) [1]: 0.1 mM | extinction coefficient at 583 nm relative to HB at 548 nm ([3]; 583 nm vs HB at 548 nm): 2.5 fold | extinction coefficient at 621 nm relative to HB at 580 nm ([3]; 621 nm vs HB at 580 nm): over 3.8 fold

2-morpholino-ethylaminated HB [HBAM-R1]
Photosensitizing Potential (Molar Concentration which exerts LD50) [2]: 4.0 µM | Sonosensitizing Potential (Molar Concentration which exerts LD50) [1]: None

Demethylated-HB [DMHBa]
Photosensitizing Potential (Molar Concentration which exerts LD50) [2]: 3.0 µM | Sonosensitizing Potential (Molar Concentration which exerts LD50) [1]: 1.0 mM

Ethylenediamne-Hypocrellin B [HBED-R2]
Photosensitizing Potential (Molar Concentration which exerts LD50) [2]: 4.0 µM | Sonosensitizing Potential (Molar Concentration which exerts LD50) [1]: None

Hypocrellin A [HA, reference compound]
Photosensitizing Potential (Molar Concentration which exerts LD50) [2]: 4.0 µM | Sonosensitizing Potential (Molar Concentration which exerts LD50) [1]: None

Methylamine-Hypocrellin B [HBMA-IV]
Photosensitizing Potential (Molar Concentration which exerts LD50) [2]: 1.0 µM | Sonosensitizing Potential (Molar Concentration which exerts LD50) [1]: None

From patent US20040110846A1, “Perylenequinones for use with immunotherapy agents” (priority 2004, published 2004)
